# Values joined by “and” are separate entries in the source; they are usually repeats but may differ in a detail not shown here. Identical values can stand only once.
# Experiments:
# [1] = tested on: human patients with malignant and non-malignant pathogenic cell diseases; format: in vivo; conditions: the other 8 patients who developed GVHD; starting with 2 mg/kg
# [2] = tested on: patient with ovarian cancer stage IIIc; assay: CA-125 during prior chemotherapy, case history; format: in vivo, human; set-up: unit not given here
# [3] = tested on: cultured erythroid colonies; assay: β-globin gene mutation assay on cultured erythroid colonies +/- Epo; format: cell-based, human; conditions: in the presence of Epo; 7% without Epo
# Experimental: To clarify the unusual clinical picture of this patient, a β-globin gene mutation assay was performed on cultured erythroid colonies, +/− erythropoietin (Epo). […] Donor cells without Epo amounted to 7%, similar to their percentage in peripheral blood lymphocytes and nucleated BMC, rising to 16% in the presence of Epo.
molecule,measurement,setting,value
C[C@]12C=CC(=O)C=C1CC[C@@H]1[C@@H]2C(=O)C[C@@]2(C)[C@H]1CC[C@]2(O)C(=O)CO [prednisone],response of GVHD to treatment,[1],responded
N.N.[Cl][Pt][Cl] [cisplatinum],CA-125,[2]; several courses 20 mg/d x3d q3w,328 and 439.6
CC(=O)O[C@H]1C(=O)[C@@]2(C)[C@H]([C@H](OC(=O)c3ccccc3)[C@]3(O)C[C@H](OC(=O)[C@H](O)[C@@H](NC(=O)c4ccccc4)c4ccccc4)C(C)=C1C3(C)C)[C@]1(OC(C)=O)CO[C@@H]1C[C@@H]2O [Taxol],CA-125,"[2]; 175 mg/m^2, after 3 cycles, from 600",27
same,CA-125,[2]; after 10 cycles,~22
same,CA-125,[2]; total of 28 courses,152
erythropoietin [Epo],Donor cells,[3],16%
